For 5 molecules, GI50 and IC50 results are on record in ChEMBL document CHEMBL5236591, “Targeting Gatekeeper Mutations for Kinase Drug Discovery” (J Med Chem, 2022).

Molecules are shown by their SMILES.

For orientation: GI50 means the concentration giving 50% growth inhibition. What is called IC50 is the concentration needed to halve the response being measured.

Assay [1] in a line: Antiproliferative activity against mouse 32D cells expressing FLT3-ITD-F691L assessed as cell growth inhibition. Format: functional.
The nature of assay [2]: Antiproliferative activity against mouse 32D cells expressing FLT3-D835Y assessed as cell growth inhibition. The format is functional.
Assay [3] can be described thus: Antiproliferative activity against mouse 32D cells expressing FLT3-ITD assessed as cell growth inhibition. Format: functional.
Assay [4] concerns BaF3. The assay is described as follows: Antiproliferative activity against mouse BaF3 cells harboring FLT3 F691L mutant assessed as cell growth inhibition. Format: functional, cell-based.
Assay [5] relates to BaF3. The assay is described as follows: Antiproliferative activity against mouse BaF3 cells harboring FLT3 D835Y mutant assessed as cell growth inhibition. The format is functional, cell-based.
The next assay concerns MOLM-14. The assay is described as follows: Antiproliferative activity against human MOLM-14 cells harboring FLT3 F691L mutant assessed as cell growth inhibition. Format: functional, cell-based.
The test system of assay [6] is BaF3. The assay is described as follows: cells. Particulars: Mus musculus.
Description: Antiproliferative activity against mouse BaF3 cells harboring TRKA F589L mutant assessed as cell growth inhibition
Assay [7] has as its target Mast/stem cell growth factor receptor Kit (Homo sapiens, UniProt P10721). The assay is described as follows: Inhibition of wild type KIT (unknown origin).
In assay [8] the target is Fibroblast growth factor receptor 4 (Mus musculus, UniProt Q03142). The assay is described as follows: Inhibition of FGFR4 in mouse BaF3 cells. Format: cell-based.
Fibroblast growth factor receptor 4, sequence (Q03142 whole entry): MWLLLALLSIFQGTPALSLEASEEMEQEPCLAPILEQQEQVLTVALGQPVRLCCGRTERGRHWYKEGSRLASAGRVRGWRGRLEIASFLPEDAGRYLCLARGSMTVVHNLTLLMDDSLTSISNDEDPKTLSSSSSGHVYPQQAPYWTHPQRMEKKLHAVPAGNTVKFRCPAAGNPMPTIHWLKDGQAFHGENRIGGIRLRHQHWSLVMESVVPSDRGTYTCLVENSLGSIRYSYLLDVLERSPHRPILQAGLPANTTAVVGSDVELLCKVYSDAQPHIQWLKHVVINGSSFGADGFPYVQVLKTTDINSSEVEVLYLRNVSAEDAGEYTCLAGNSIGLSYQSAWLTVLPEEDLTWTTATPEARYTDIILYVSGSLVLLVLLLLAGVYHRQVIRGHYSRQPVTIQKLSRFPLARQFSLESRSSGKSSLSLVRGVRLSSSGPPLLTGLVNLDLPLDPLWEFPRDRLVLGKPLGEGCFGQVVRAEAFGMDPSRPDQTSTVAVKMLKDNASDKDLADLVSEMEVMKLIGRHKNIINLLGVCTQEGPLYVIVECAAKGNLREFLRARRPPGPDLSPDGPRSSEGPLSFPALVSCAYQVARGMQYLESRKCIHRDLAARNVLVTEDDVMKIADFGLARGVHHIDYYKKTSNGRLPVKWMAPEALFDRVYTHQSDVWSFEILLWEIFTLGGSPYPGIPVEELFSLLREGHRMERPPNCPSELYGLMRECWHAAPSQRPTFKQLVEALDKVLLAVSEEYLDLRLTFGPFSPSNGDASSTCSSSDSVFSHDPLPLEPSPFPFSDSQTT

Mast/stem cell growth factor receptor Kit, sequence (P10721 whole entry): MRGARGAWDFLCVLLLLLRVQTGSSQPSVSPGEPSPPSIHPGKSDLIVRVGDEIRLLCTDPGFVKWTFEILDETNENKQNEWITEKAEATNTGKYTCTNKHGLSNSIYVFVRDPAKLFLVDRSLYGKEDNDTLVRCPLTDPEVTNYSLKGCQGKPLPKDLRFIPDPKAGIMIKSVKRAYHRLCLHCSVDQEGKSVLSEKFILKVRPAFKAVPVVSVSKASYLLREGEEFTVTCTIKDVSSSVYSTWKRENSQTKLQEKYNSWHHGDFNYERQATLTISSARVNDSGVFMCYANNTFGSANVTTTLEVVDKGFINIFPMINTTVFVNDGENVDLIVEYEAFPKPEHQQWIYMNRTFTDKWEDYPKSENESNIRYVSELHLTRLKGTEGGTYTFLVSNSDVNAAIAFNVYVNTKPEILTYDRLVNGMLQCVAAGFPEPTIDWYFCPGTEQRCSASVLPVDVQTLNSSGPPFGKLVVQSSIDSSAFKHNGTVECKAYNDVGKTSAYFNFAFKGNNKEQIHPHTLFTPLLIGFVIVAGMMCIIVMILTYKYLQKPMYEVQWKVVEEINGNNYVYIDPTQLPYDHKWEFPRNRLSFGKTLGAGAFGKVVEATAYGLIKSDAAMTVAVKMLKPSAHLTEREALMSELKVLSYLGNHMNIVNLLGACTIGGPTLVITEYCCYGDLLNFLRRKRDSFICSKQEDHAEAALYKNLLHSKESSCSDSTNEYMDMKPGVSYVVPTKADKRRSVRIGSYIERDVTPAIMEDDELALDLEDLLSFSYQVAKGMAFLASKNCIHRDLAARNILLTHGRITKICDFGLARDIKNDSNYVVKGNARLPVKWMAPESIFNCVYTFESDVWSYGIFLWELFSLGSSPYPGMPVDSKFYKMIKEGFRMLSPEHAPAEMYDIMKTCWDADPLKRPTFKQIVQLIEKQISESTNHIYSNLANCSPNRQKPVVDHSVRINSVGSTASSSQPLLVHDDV

Regarding `CCCNc1nc(Nc2ccc(C#N)cc2)ncc1C#CCCCNC(=O)[C@H](C)N(C)C(=O)/C=C/CN(C)C` [FF-10101], the values for the GI50 in assay [1], in assay [2] and in assay [3] were 10 nM, 0.81 nM and 1.9 nM, respectively. For the molecule `FC(F)(F)c1ccc(CNc2ccc(Cc3c[nH]c4ncc(Cl)cc34)cn2)cn1` [PEXIDARTINIB], the results for the IC50 in the assay with BaF3 [4], in the assay on BaF3 [5] and in the assay on MOLM-14 were 97 nM, 4700 nM and 670 nM, respectively. In turn, `C[C@@H]1CCc2ncc(F)cc2[C@H]2CCCN2c2ccn3ncc(c3n2)C(=O)N1` [SELITRECTINIB] gave an IC50 with BaF3 [6] of 27.8 nM. In the case of `COCCOc1cc(F)c2c(Nc3ccc(NC(=O)Cn4cc(C(C)C)nn4)cc3)ncnc2c1`, the IC50 in assay [7] came out at 3 nM.

With `C=CC(=O)Nc1cc(N2CCC(N3CCOCC3)CC2)cc(F)c1Nc1n[nH]c2ccc(O[C@H](C)c3c(Cl)cncc3Cl)cc12`, the midpoint of inhibition in assay [8], the IC50, lay at 3.5 nM.
